Source: the NIST ThermoML archive (doi:10.1021/je0602925)
± gives the expanded uncertainty stated by the source.

Assay: activity coefficient (dimensionless); of the first substance listed, at infinite dilution; xn = mol fraction of the nth substance listed
Details: Liquid, Chromatography, x1 = 0

CCCCC [pentane] + CCCCCCCCCCCCCC[P+](CCCCCC)(CCCCCC)CCCCCC.[Cl-]
activity coefficient (308.15 K): 0.607 ± 0.042
activity coefficient (318.15 K): 0.599 ± 0.042
activity coefficient (328.15 K): 0.594 ± 0.042
